Test results published in patent publication US20030095979A1, “Pharmaceutical preparations comprising modified peptides” (Cistem Biotechnologies GMBH, priority 2001, published 2003).

Experiments:
Set-up in all cases: species or system mice (C57BL/6)
[1] = test system: specific IFN-γ-producing T cells; assay: Example 2: mice vaccinated subcutaneously in the footpad 3 times, lymph node cells and splenocytes activated ex vivo with SIINFEKL, IFN-γ ELISpot assay; conditions: in combination with 100 μg poly-L-arginine; 100 μg peptide s.c. footpad days 0, 14, 28; one week after 3rd vaccination
Protocol: Groups of 4 mice (C57BL/6, female, 6 weeks of age, II-2^b) were injected subcutaneously in the footpad 3 times (days 0, 14, 28) as follows (dose 100 ug of peptide, molarity adapted; +100 μg poly-L-arginine per mouse):
Groups of 4 mice were vaccinated subcutaneously in the footpad 3 times as indicated. One week after the 3rd vaccination, popliteal lymph nodes and spleens were removed and lymph node cells and splenocytes were activated ex vivo with peptide SIINFEKL (“245”) to determine IFN-y-producing specific cells (ELISpot assay).

[2] = test system: SIINFEKL specific IFN-γ-producing T cells; assay: Example 1: mice vaccinated subcutaneously in the flank 3 times, splenocytes activated ex vivo with SIINFEKL, IFN-γ ELISpot assay; conditions: for peptide specific T cells induced: without adding poly-L-arginine, 100 μg peptide s.c. flank days 0, 21, 28, spleen one week after third vaccination
Protocol: Groups of 4 mice (C75BL/6, femal, 8 weeks of age, H-2^b were injected subcutaneoulsy in the flank 3 times (days 0, 21 and 28) as follows (dose 100 μg of peptide, molarity adapted; +/−100 μg poly-L-arginine per mouse):
One week after the third vaccination spleens were removed and the splenocytes were activated ex vivo with peptide SIINFEKL (“245”) to determine IFN-y-producing specific cells (ELISpot assay).

[3] = test system: SIINFEKL-specific IFN-γ-producing T cells; assay: Example 3: mice vaccinated subcutaneously in the hind footpads, spleen cells restimulated ex vivo, IFN-γ ELISpot assay; conditions: in combination with 100 μg poly-L-arginine; 100 μg peptide s.c. hind footpads; spleen 7 days after vaccination
Protocol: Groups of 4 mice (C57BL/6, female, 8 weeks of age, H-2^b) were injected subcutaneously into the hind footpads as follows (dose 100 μg of peptide, molarity adapted; +100 μg poly-L-arginine per mouse):
Groups of 4 mice were vaccinated subcutaneously in the hind footpads as indicated. 7 days after the vaccination single cell suspensions of spleens were prepared and cells were restimulated ex vivo to detect IFN-γ-producing cells via ELISpot assay.

Row | Sequence | peptide specific T cells induced [2] | induction of SIINFEKL-specific IFN-γ-producing T cells [3] | further results
1 | EDEDSIINFEKL [SIINFEKL with EDED added at the N-terminus] |  |  | induction of specific IFN-γ-producing T cells in the draining (popliteal) lymph node (local response) [1]: high amount; induction of specific IFN-γ-producing T cells in the spleen (systemic response) [1]: high amount
2 | FIFISIINFEKL [SIINFEKL with FIFI added at the N-terminus] | about 100 per 1 million spleen cells | high numbers | 
3 | SIINFEKLFIFI [SIINFEKL with FIFI added at the C-terminus] |  | high numbers | 
4 | FIFIFISIINFEKL [SIINFEKL with FIFIFI added at the N-terminus] | about 100 per 1 million spleen cells |  | 
5 | SIINFEKL [ovalbumin derived class I H-2Kb restricted peptide, unmodified wild type, reference compound] |  |  | induction of T cells (general statement) ([2]; alone or in combination with an adjuvant like poly-L-arginine): weak inducer of T cells
